For 20 molecules, IC50, inhibition and EC50 results are on record in ChEMBL document CHEMBL1145376, “C-8 Modifications of 3-alkyl-1,8-dibenzylxanthines as inhibitors of human cytosolic phosphoenolpyruvate carboxykinase” (Bioorg Med Chem Lett, 2007).

For orientation: IC50 means the concentration that inhibits the measured activity by half. A lower IC50 goes with inhibition by little substance. What is called inhibition is the drop in the measured response relative to a control, in per cent. Higher therefore signals a response far below the control. One may read the EC50 as the midpoint of the concentration-response curve.

One assay has as its target T1, Phosphoenolpyruvate carboxykinase, cytosolic [GTP] (Homo sapiens, UniProt P35558).
T1 sequence (P35558 whole entry): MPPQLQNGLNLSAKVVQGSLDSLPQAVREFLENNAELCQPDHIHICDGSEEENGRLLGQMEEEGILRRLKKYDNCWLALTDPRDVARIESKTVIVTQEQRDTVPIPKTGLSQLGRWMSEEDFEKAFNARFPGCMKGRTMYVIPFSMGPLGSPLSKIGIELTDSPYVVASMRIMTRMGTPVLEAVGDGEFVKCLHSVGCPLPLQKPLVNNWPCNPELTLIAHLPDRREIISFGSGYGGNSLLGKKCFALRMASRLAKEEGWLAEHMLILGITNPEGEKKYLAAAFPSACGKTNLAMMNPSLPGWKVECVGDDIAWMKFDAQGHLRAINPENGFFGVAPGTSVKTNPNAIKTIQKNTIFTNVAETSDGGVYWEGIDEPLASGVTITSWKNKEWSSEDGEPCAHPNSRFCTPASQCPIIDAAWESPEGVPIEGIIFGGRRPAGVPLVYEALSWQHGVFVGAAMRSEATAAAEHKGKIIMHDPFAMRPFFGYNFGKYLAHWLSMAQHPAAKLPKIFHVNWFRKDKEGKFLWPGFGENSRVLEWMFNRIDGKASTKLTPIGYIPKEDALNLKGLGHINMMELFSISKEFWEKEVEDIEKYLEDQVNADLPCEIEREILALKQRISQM
The assay can be described thus: Inhibition of human cPEPCK.
In the case of `CCCCn1c(=O)n(Cc2ccccc2F)c(=O)c2[nH]c(Cc3ccc(N)cc3)nc21`, the IC50 was found to be 2.56 µM.

With `O=C(Nc1ccc(Cc2nc3c([nH]2)c(=O)n(Cc2ccccc2F)c(=O)n3CC2CC2)cc1)C(F)(F)F`, the midpoint of inhibition, the IC50, lay at 1.8 µM. As for `Cc1nn(C)cc1S(=O)(=O)Nc1ccc(Cc2nc3c([nH]2)c(=O)n(Cc2ccccc2F)c(=O)n3CC2CC2)cc1`, the IC50 stood at 0.24 µM. On to `CC(=O)Nc1ccc(Cc2nc3c([nH]2)c(=O)n(Cc2ccccc2F)c(=O)n3CC2CC2)cc1`, for which the IC50 amounted to 0.69 µM. Still for that read-out and setting: in the case of `CCCCn1c(=O)n(Cc2ccccc2F)c(=O)c2[nH]c(Cc3ccc(N)cc3N)nc21` it was 5.65 µM; in that of `Nc1ccc(Cc2nc3c([nH]2)c(=O)n(Cc2ccccc2F)c(=O)n3CC2CC2)cc1`, 1.56 µM; in that of `CCCCn1c(=O)n(Cc2ccccc2F)c(=O)c2[nH]c(Cc3ccc(NC(C)=O)cc3NC(C)=O)nc21`, 8.7 µM. Still for that read-out and setting: in the case of `CCCCn1c(=O)n(Cc2ccccc2F)c(=O)c2[nH]c(Cc3ccc(NS(=O)(=O)c4c(C)nn(C)c4Cl)cc3)nc21` it was 0.54 µM; in that of `CCCCn1c(=O)n(Cc2ccccc2F)c(=O)c2[nH]c(Cc3ccc(NC(C)=O)cc3)nc21`, 2.11 µM. Same read-out and setting: in the case of `CN(C)CC(=O)Nc1ccc(Cc2nc3c([nH]2)c(=O)n(Cc2ccccc2F)c(=O)n3CC2CC2)cc1` it was 2.07 µM; in that of `CCCCn1c(=O)n(Cc2ccccc2F)c(=O)c2[nH]c(Cc3ccc(NC(=O)C(F)(F)F)cc3)nc21`, 2.3 µM.

In another assay the target is T2, Phosphoenolpyruvate carboxykinase, cytosolic [GTP] (Homo sapiens) (UniProt P35558).
T2 sequence (whole entry): T1 sequence (P35558 whole entry)
The assay can be described thus: Inhibition of human cPEPCK at 1 uM.
For `CCCCn1c(=O)n(Cc2ccccc2F)c(=O)c2[nH]c(Cc3ccc(NS(=O)(=O)c4cccs4)cc3)nc21`, the inhibition turned out to be 30%. `CCCCn1c(=O)n(Cc2ccccc2F)c(=O)c2[nH]c(Cc3ccc(NS(=O)(=O)c4ccccc4)cc3)nc21` showed an inhibition of 22%.

The molecule `CCCCn1c(=O)n(Cc2ccccc2F)c(=O)c2[nH]c(Cc3ccc(NS(=O)(=O)Cc4ccccc4)cc3)nc21` gave an inhibition of 31%.

For the molecule `CCCCn1c(=O)n(Cc2ccccc2F)c(=O)c2[nH]c(Cc3ccc(NS(=O)(=O)c4ccsc4C(=O)OC)cc3)nc21`, the inhibition is 19%.

The target in another assay is T3, Phosphoenolpyruvate carboxykinase, cytosolic [GTP] (Rattus norvegicus, UniProt P07379).
T3 sequence (P07379 whole entry): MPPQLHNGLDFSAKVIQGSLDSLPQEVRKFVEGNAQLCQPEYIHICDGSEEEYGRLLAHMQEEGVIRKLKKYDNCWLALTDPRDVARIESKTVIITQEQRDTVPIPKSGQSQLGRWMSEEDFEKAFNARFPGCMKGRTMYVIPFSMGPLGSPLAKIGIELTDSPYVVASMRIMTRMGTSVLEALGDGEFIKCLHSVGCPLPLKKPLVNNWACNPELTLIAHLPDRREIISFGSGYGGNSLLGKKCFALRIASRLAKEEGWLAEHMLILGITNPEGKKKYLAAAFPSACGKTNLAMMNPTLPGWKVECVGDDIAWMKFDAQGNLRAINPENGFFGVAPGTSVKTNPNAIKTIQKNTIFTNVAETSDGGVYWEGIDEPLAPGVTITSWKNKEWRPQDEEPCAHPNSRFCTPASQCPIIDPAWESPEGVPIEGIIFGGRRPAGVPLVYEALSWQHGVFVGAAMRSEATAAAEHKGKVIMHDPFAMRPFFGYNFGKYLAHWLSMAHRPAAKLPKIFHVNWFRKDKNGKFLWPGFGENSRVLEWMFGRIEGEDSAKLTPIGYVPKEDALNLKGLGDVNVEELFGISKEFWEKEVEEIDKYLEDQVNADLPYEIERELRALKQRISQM
Description: Inhibition of cPEPCK in rat H4IIE cells assessed as effect on glucose production. It is filed as cell-based.
As to `Cc1nn(C)cc1S(=O)(=O)Nc1ccc(Cc2nc3c([nH]2)c(=O)n(Cc2ccccc2F)c(=O)n3CC2CC2)cc1`, the EC50 was determined as 5.57 µM. The same measure, in the same setting: in the case of `CC(=O)Nc1ccc(Cc2nc3c([nH]2)c(=O)n(Cc2ccccc2F)c(=O)n3CC2CC2)cc1` it was 4.7 µM.

With `Cn1cc(S(=O)(=O)Nc2ccc(Cc3nc4c([nH]3)c(=O)n(Cc3ccccc3F)c(=O)n4CC3CC3)cc2)cn1`, the EC50 was found to be 8.75 µM. As to `O=c1c2[nH]c(Cc3ccc(NS(=O)(=O)c4cccnc4)cc3)nc2n(CC2CC2)c(=O)n1Cc1ccccc1F`, the EC50 came to 5.5 µM. `CCCCn1c(=O)n(Cc2ccccc2F)c(=O)c2[nH]c(Cc3ccc(NS(=O)(=O)c4c(C)nn(C)c4Cl)cc3)nc21`: the EC50 is 3.97 µM. Turning to `Cc1noc(C)c1S(=O)(=O)Nc1ccc(Cc2nc3c([nH]2)c(=O)n(Cc2ccccc2F)c(=O)n3CC2CC2)cc1`, the EC50 worked out at 3.4 µM. For the molecule `Cc1nn(C)c(Cl)c1S(=O)(=O)Nc1ccc(Cc2nc3c([nH]2)c(=O)n(Cc2ccccc2F)c(=O)n3CC2CC2)cc1`, the EC50 stood at 2.17 µM. Consider `CCCCn1c(=O)n(Cc2ccccc2F)c(=O)c2[nH]c(Cc3ccc(NC(C)=O)cc3)nc21`, for which the EC50 worked out at 8.6 µM. For `Cc1nc(N)sc1S(=O)(=O)Nc1ccc(Cc2nc3c([nH]2)c(=O)n(Cc2ccccc2F)c(=O)n3CC2CC2)cc1`, the concentration for a half-maximal effect (EC50) stood at 8.2 µM.
